# In PubChem BioAssay (NCI):
#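 Exposure lasted 48 hours, with cells grown in 96-well plates and compounds tested at five concentrations. The concentration for full growth arrest is given as TGI.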
# Columns and labels:
# Experiment in all cases: inhibition of tumour cell growth, NCI panel, 48 h
# [1] = tested on: ACHN renal
# [2] = tested on: UO-31 renal
# [3] = tested on: KM12 colon
# [4] = tested on: RXF 393 renal
# [5] = tested on: OVCAR-8 ovarian
# [6] = tested on: LOX IMVI melanoma
# [7] = tested on: COLO 205 colon
# [8] = tested on: NCI-H226 lung
# [9] = tested on: SK-MEL-28 melanoma
# [10] = tested on: SF-268 CNS
# [11] = tested on: NCI/ADR-RES ovarian
# [12] = tested on: SNB-19 CNS
# [13] = tested on: NCI-H522 lung
# [14] = tested on: U251 CNS
# [15] = tested on: A549 NSCLC
# [16] = tested on: HL-60(TB) leukemia
# [17] = tested on: NCI-H23 lung
# [18] = tested on: MDA-MB-435
# [19] = tested on: IGROV1 ovarian
# [20] = tested on: EKVX NSCLC
# [21] = tested on: DU-145 prostate
# [22] = tested on: MCF7 breast
# [23] = tested on: 786-0 renal
# [24] = tested on: HCT-116 colon
# [25] = tested on: SK-MEL-5 melanoma
# [26] = tested on: BT-549 breast
# [27] = tested on: HOP-92 NSCLC
# [28] = tested on: K-562 leukemia
# [29] = tested on: OVCAR-3 ovarian
# [30] = tested on: OVCAR-5 ovarian
# [31] = tested on: OVCAR-4 ovarian
# [32] = tested on: SNB-75 CNS
# [33] = tested on: CAKI-1 renal
# [34] = tested on: HT29 colon
# [35] = tested on: MOLT-4 leukemia
# [36] = tested on: A498 renal
# [37] = tested on: RPMI-8226 leukemia
# [38] = tested on: UACC-62 melanoma
# [39] = tested on: HCT-15 colon
# [40] = tested on: TK-10 renal
# [41] = tested on: M14 melanoma
# [42] = tested on: PC-3 prostate
# [43] = tested on: HS 578T breast
# [44] = tested on: MDA-N
# [45] = tested on: SW-620 colon
# [46] = tested on: CCRF-CEM leukemia
# [47] = tested on: HOP-62 NSCLC
# [48] = tested on: MALME-3M melanoma
# [49] = tested on: MDA-MB-231 breast
# [50] = tested on: HCC-2998 colon
# [51] = tested on: NCI-H460 lung
# [52] = tested on: SK-OV-3 ovarian
# [53] = tested on: UACC-257 melanoma
# [54] = tested on: SK-MEL-2 melanoma
# [55] = tested on: SF-295 CNS
# [56] = tested on: T-47D breast
# [57] = tested on: SF-539 CNS
# [58] = tested on: SN12C renal
compound,measurement,setting,value
CC12CC(c3ccccc3O1)C(C(=O)Nc1nccs1)C(=O)N2 (stereo not given),TGI,[1],> 100 µM
same,TGI,[2],> 100 µM
same,TGI,[3],> 100 µM
same,TGI,[4],> 100 µM
same,TGI,[5],> 100 µM
same,TGI,[6],> 100 µM
same,TGI,[7],> 100 µM
same,TGI,[8],> 100 µM
same,TGI,[9],> 100 µM
same,TGI,[10],> 100 µM
same,TGI,[11],> 100 µM
same,TGI,[12],> 100 µM
same,TGI,[13],> 100 µM
same,TGI,[14],> 100 µM
same,TGI,[15],> 100 µM
same,TGI,[16],> 100 µM
same,TGI,[17],> 100 µM
same,TGI,[18],> 100 µM
same,TGI,[19],> 100 µM
same,TGI,[20],90.7 µM
same,TGI,[21],> 100 µM
same,TGI,[22],> 100 µM
same,TGI,[23],> 100 µM
same,TGI,[24],> 100 µM
same,TGI,[25],> 100 µM
same,TGI,[26],> 100 µM
same,TGI,[27],> 100 µM
same,TGI,[28],> 100 µM
same,TGI,[29],> 100 µM
same,TGI,[30],> 100 µM
same,TGI,[31],> 100 µM
same,TGI,[32],> 100 µM
same,TGI,[33],> 100 µM
same,TGI,[34],> 100 µM
same,TGI,[35],> 100 µM
same,TGI,[36],> 100 µM
same,TGI,[37],> 100 µM
same,TGI,[38],> 100 µM
same,TGI,[39],> 100 µM
same,TGI,[40],> 100 µM
same,TGI,[41],> 100 µM
same,TGI,[42],> 100 µM
same,TGI,[43],> 100 µM
same,TGI,[44],> 100 µM
same,TGI,[45],> 100 µM
same,TGI,[46],> 100 µM
same,TGI,[47],> 100 µM
same,TGI,[48],> 100 µM
same,TGI,[49],> 100 µM
same,TGI,[50],> 100 µM
same,TGI,[51],> 100 µM
same,TGI,[52],> 100 µM
same,TGI,[53],> 100 µM
same,TGI,[54],> 100 µM
same,TGI,[55],> 100 µM
O=C(CC1(O)CCCCC1)OC1CCCC1,TGI,[1],> 100 µM
same,TGI,[2],> 100 µM
same,TGI,[3],> 100 µM
same,TGI,[4],> 100 µM
same,TGI,[56],> 100 µM
same,TGI,[5],> 100 µM
same,TGI,[6],> 100 µM
same,TGI,[7],> 100 µM
same,TGI,[8],> 100 µM
same,TGI,[10],> 100 µM
same,TGI,[11],> 100 µM
same,TGI,[12],> 100 µM
same,TGI,[13],> 100 µM
same,TGI,[14],> 100 µM
same,TGI,[15],> 100 µM
same,TGI,[17],> 100 µM
same,TGI,[18],> 100 µM
same,TGI,[19],> 100 µM
same,TGI,[20],> 100 µM
same,TGI,[21],> 100 µM
same,TGI,[22],> 100 µM
same,TGI,[23],> 100 µM
same,TGI,[24],> 100 µM
same,TGI,[25],> 100 µM
same,TGI,[26],> 100 µM
same,TGI,[27],> 100 µM
same,TGI,[29],> 100 µM
same,TGI,[30],> 100 µM
same,TGI,[31],> 100 µM
same,TGI,[32],> 100 µM
same,TGI,[33],> 100 µM
same,TGI,[34],> 100 µM
same,TGI,[36],> 100 µM
same,TGI,[38],> 100 µM
same,TGI,[39],> 100 µM
same,TGI,[40],> 100 µM
same,TGI,[41],> 100 µM
same,TGI,[42],> 100 µM
same,TGI,[43],> 100 µM
same,TGI,[44],> 100 µM
same,TGI,[47],> 100 µM
same,TGI,[48],> 100 µM
same,TGI,[57],> 100 µM
same,TGI,[49],> 100 µM
same,TGI,[51],> 100 µM
same,TGI,[58],> 100 µM
same,TGI,[52],> 100 µM
same,TGI,[53],> 100 µM
same,TGI,[54],> 100 µM
same,TGI,[55],> 100 µM
